Test results from patent publication EP0219616A1, “N,N'-dimethyl-N,N'-4,10-dioxa-3,11-dioxo-1,13-tridecylene-bis-tetrahydropapaverinium dichloride” (S O "PHARMACHIM", priority 1985, dated 1987).
Like-named read-outs stand apart in the source and are kept apart here.

How the values were obtained:
[1] = Comparative stability in aqueous acidic medium, content by HPLC; format: physicochemical
Protocol: […] Die Prüfung wurde bei unterschiedlichen pH-Werten in dem angegebenen Intervall durch Behandlung der wässrigen Lösungen des Dichlormethylats der Formel I und des Bezylats bei einer Temperatur von 53°C während 40 Stunden durchgeführt.
Chromatografische Bedingungen: Säule mit umgekehrter Phase C18, bewegliche Phase: wässrige 0,1 M Kaliumhydrogenphosphat, enthaltend Natriumoktylhydrogensulfat (1 g/I) und Azetonitril in einem Verhältnis 1:1. Durchlaßgeschwindigkeit 1,5 ml/Min.
Es werden je 7 Proben einer 0,5%-igen wässrigen Lösung des Dichlorids I und des Dibezylats mit bestimmten pH-Werten zubereitet, was durch Zufügen von Ortophospharsäure ereicht wird. Die Proben verweilen 40 Stunden bei einer Temperatur von 53°C. Danach wird der Prozentgehalt an Dichlorid und Dibezylat in den Proben gemessen.

[2] = pH 2,5; literature reference (4); cited from earlier work
Neuromuskel-Übertragung = assay: Sciatic nerve-gastrocnemius preparation in cats: muscle contraction on nerve stimulation (neuromuscular block); format: in vivo, Katzen; conditions: for Eintreten der Neuro-muskel-Blockierung / Wiederherstellung der Neuromuskel-Übertragung: dose 0,2 mg/kg
Text: Die Versuche wurden an Katzen unter Einführen von gleichen Dosen des Originalpräparats "Tracrium" und der Verbindung der Formel I. Es wurde das klassische Verfahren "I-schiadiensgastrocnemicus" benutzt. Es wurde eine Kontraktion des Muskels Gastrocnemicus zufolge einer Reizung des Hüftnervs (Ischiasnervs) registriert. Die Ergebnisse sind in Tabelle II dargestellt.

[3] = Solubility compared with known salts (no method given); format: physicochemical

COc1ccc(CC2c3cc(OC)c(OC)cc3CC[N+]2(C)CCC(=O)OCCCCCOC(=O)CC[N+]2(C)CCc3cc(OC)c(OC)cc3C2Cc2ccc(OC)c(OC)c2)cc1OC (stereo not shown) [Dibezylat, Dibesylat des N,N-4,10-Dioxa-3,11-Dioxotridezylen-1,13-bis-tetrahydropapaverins, reference compound]
remaining at 40 h ([1]; acidic aqueous solution, pH 3, at pH 3,50, 53°C, read-out: Prozentgehalt, Maximum): 73.8% | remaining at 40 h ([1]; aqueous solution, phosphoric acid, pH 1, pH 1,76, 0,5% aqueous solution, 53°C, read-out: Prozent-gehalt): 60.6% | remaining at 40 h ([1]; aqueous solution, phosphoric acid, pH 2, pH 2,88, 0,5% aqueous solution, 53°C, read-out: Prozent-gehalt): 72.9% | remaining at 40 h ([1]; aqueous solution, phosphoric acid, pH 3, pH 3,16, 0,5% aqueous solution, 53°C, read-out: Prozent-gehalt): 73.5% | remaining at 40 h ([1]; aqueous solution, phosphoric acid, pH 3, pH 3,50, 0,5% aqueous solution, 53°C, read-out: Prozent-gehalt): 73.8% | remaining at 40 h ([1]; aqueous solution, phosphoric acid, pH 3, pH 3,71, 0,5% aqueous solution, 53°C, read-out: Prozent-gehalt): 72.2% | remaining at 40 h ([1]; aqueous solution, phosphoric acid, pH 4, pH 4,09, 0,5% aqueous solution, 53°C, read-out: Prozent-gehalt): 68.8% | Prozentgehalt niedriger im Vergleich zur Verbindung der Formel I ([1]; pH interval 2,46 bis 3,77, 53°C, 40 h): ~20% | Prozentgehalt des Bezylats bei maximaler Stabilität [2]: 76%

COc1ccc(CC2c3cc(OC)c(OC)cc3CC[N+]2(C)CCC(=O)OCCCCCOC(=O)CC[N+]2(C)CCc3cc(OC)c(OC)cc3C2Cc2ccc(OC)c(OC)c2)cc1OC (stereo not shown) [Dichlormethylat der Formel I, N,N-Dimethyl-N,N-4,10-dioxa-3,11-dioxotridezylen-1,13-tetrachydropapaverinoil-dichlorid]
Eintreten der Neuro-muskel-Blockierung (Neuromuskel-Übertragung; cats): 60,3 Sek. | Wiederherstellung der Neuromuskel-Übertragung (Neuromuskel-Übertragung; cats): 29,8 Min. | Eintreten, Wiederherstellung und Dauer des Effekts der Neuromuskelübertragung im Vergleich zu "Tracrium" (Neuromuskel-Übertragung; cats, equal doses): keinen statistisch wesentlichen Unterschied | biologischer Effekt bei den pharmakologischen Prüfungen (Neuromuskel-Übertragung; same effect with smaller quantity of active substance): verbesserten biologischen Effekt | remaining at 40 h ([1]; acidic aqueous solution, pH 3, at pH 3,0 -3,27, 53°C, read-out: Prozentgehalt, Maximum): 91.9% | remaining at 40 h ([1]; acidic aqueous solution, pH interval 2,46 bis 3,77, 53°C, read-out: Prozentgehalt): 86 to 91.9% | Stabilität im Vergleich zum Bezylat ([1]; aqueous acidic medium, pH 1,7 bis 4,0, 53°C, 40 h): wesentlich stabiler | remaining at 40 h ([1]; aqueous solution, phosphoric acid, pH 2, pH 2,46, 0,5% aqueous solution, 53°C, read-out: Prozent-gehalt): 88.1% | remaining at 40 h ([1]; aqueous solution, phosphoric acid, pH 2, pH 2,75, 0,5% aqueous solution, 53°C, read-out: Prozent-gehalt): 89.5% | remaining at 40 h ([1]; aqueous solution, phosphoric acid, pH 3, pH 3,04, 0,5% aqueous solution, 53°C, read-out: Prozent-gehalt): 91.9% | remaining at 40 h ([1]; aqueous solution, phosphoric acid, pH 3, pH 3,27, 0,5% aqueous solution, 53°C, read-out: Prozent-gehalt): 91.4% | remaining at 40 h ([1]; aqueous solution, phosphoric acid, pH 3, pH 3,58, 0,5% aqueous solution, 53°C, read-out: Prozent-gehalt): 87.6% | Prozent-gehalt ([1]; pH 4,09, 0,5% aqueous solution, 53°C, 40 h, listed as Dichlor-methyl der Formel I, 2400 min): 70,4% | Löslichkeit im Vergleich zu dem bekannten Dijodid und den anderen Salzen derselben Gruppe [3]: bessere Löslichkeit

COc1ccc(CC2c3cc(OC)c(OC)cc3CC[N+]2(C)CCC(=O)OCCCCCOC(=O)CC[N+]2(C)CCc3cc(OC)c(OC)cc3C2Cc2ccc(OC)c(OC)c2)cc1OC (stereo not shown) [Tracrium, Dibesylat des N,N-4,10-Dioxa-3,11-Dioxotridezylen-1,13-bis-tetrahydropapaverins, reference compound]
Eintreten der Neuro-muskel-Blockierung (Neuromuskel-Übertragung; cats): 60,4 Sek. | Wiederherstellung der Neuromuskel-Übertragung (Neuromuskel-Übertragung; cats): 34,6 Min.
